Laboratory results reported in ChEMBL document CHEMBL1130376, “Effects of taxoids from Taxus cuspidata on microtubule depolymerization and vincristine accumulation in MDR cells” (Bioorg Med Chem Lett, 1997).
Values after ≈ are worked out from the molar mass of the structure shown.

Legend:
[1] = Cytotoxicity against human epidermoid carcinoma KB cells; assay type: functional, cell-based
L1210 = assay: Cytotoxicity against murine leukemia L1210 cells; assay type: functional, cell-based, Mus musculus; settings: Mus musculus, L1210; read-out: IC50
[2] = Vincristine (VCR) accumulation in multidrug resistant human ovarian cancer 2780 AD cells at a concentration 1 ug/mL; assay type: functional
[3] = Vincristine (VCR) accumulation in multidrug resistant human ovarian cancer 2780 AD cells at a concentration 10 ug/mL; assay type: functional

Compound	IC50 [1]	IC50 (L1210)	vincristine accumulation (% of control) [2]	vincristine accumulation (% of control) [3]
C=C1[C@@H](O)C[C@H](OC(C)=O)[C@@]2(C)[C@@H](OC(C)=O)[C@H](OC(C)=O)C3=C(C)C(=O)C[C@@H]([C@@H](OC(C)=O)[C@H]12)C3(C)C	> 10 µg/mL	> 10 µg/mL	141%	257%
CC(=O)O[C@H]1C[C@H]2OC[C@@]2(OC(C)=O)[C@H]2[C@H](OC(C)=O)[C@]3(C(C)(C)O)C[C@H](O)C(C)=C3[C@@H](OC(=O)c3ccccc3)[C@H](OC(C)=O)[C@]12C	> 10 µg/mL	> 10 µg/mL	171%	240%
C=C1[C@@H](OC(=O)CC(c2ccccc2)N(C)C)CC[C@]2(C)[C@@H]1C[C@@H]1C[C@H](OC(C)=O)C(C)=C([C@@H](OC(C)=O)[C@@H]2OC(C)=O)C1(C)C (stereo partly specified)	> 10 µg/mL	> 10 µg/mL	250%	882%
C=C1[C@@H](O)C[C@H](OC(C)=O)[C@@]2(C)[C@@H](OC(C)=O)[C@H](OC(C)=O)C3=C(C)[C@@H](OC(C)=O)C[C@@H]([C@@H](OC(C)=O)[C@H]12)C3(C)C [DECINNAMOYLTAXININE J]	> 10 µg/mL	> 10 µg/mL	207%	363%
CC(=O)O[C@@]12CO[C@@H]1C[C@@H](O)[C@@]1(C)C(=O)[C@H](O)C3=C(C)[C@@H](OC(=O)[C@H](O)C(NC(=O)c4ccccc4)c4ccccc4)C[C@@](O)([C@@H](OC(=O)c4ccccc4)[C@H]21)C3(C)C (stereo partly specified)	0.013 µg/mL (≈ 0.016 µM)	0.71 µg/mL (≈ 0.875 µM)	192%	218%
C=C1[C@@H](O)CC[C@@]2(C)[C@@H](OC(C)=O)[C@H](OC(C)=O)C3=C(C)C(=O)C[C@@H]([C@@H](O)[C@H]12)C3(C)C	> 10 µg/mL	> 10 µg/mL	139%	271%
C=C1[C@@H](OC(=O)/C=C/c2ccccc2)CC[C@@]2(C)[C@@H](OC(C)=O)[C@H](OC(C)=O)C3=C(C)C(=O)C[C@@H]([C@@H](OC(C)=O)[C@H]12)C3(C)C	> 10 µg/mL	> 10 µg/mL	195%	571%
C=C1[C@@H](OC(=O)CC(c2ccccc2)N(C)C)C[C@H](OC(C)=O)[C@]2(C)[C@@H]1C[C@@H]1C[C@H](OC(C)=O)C(C)=C([C@@H](OC(C)=O)[C@@H]2OC(C)=O)C1(C)C (stereo partly specified)	> 10 µg/mL	7.2 µg/mL (≈ 10.3 µM)	233%	841%
CC(=O)OC[C@H]1[C@H]2[C@H](O)[C@]3(O)C[C@H](OC(C)=O)C(C)=C([C@@H](OC(C)=O)[C@H](OC(C)=O)[C@]2(C)[C@@H](OC(C)=O)C[C@@H]1OC(C)=O)C3(C)C	> 10 µg/mL	4.6 µg/mL (≈ 7.03 µM)	147%	208%
C=C1[C@@H](O)CC[C@@]2(C)[C@@H](OC(C)=O)[C@H](OC(C)=O)C3=C(C)C(=O)C[C@@](O)([C@@H](OC(C)=O)[C@H]12)C3(C)C	0.6 µg/mL (≈ 1.22 µM)	6.2 µg/mL (≈ 12.6 µM)	152%	216%
C=C1[C@@H](OC(=O)/C=C/c2ccccc2)C[C@H](OC(C)=O)[C@@]2(C)[C@@H](OC(C)=O)[C@H](OC(C)=O)[C@@]3(O)C(C)=C(OC(C)=O)C[C@@H]([C@@H](OC(C)=O)[C@H]12)C3(C)C	1.8 µg/mL (≈ 2.48 µM)	3 µg/mL (≈ 4.14 µM)	133%	325%
C=C1[C@@H](OC(=O)CC(c2ccccc2)N(C)C)CC[C@@]2(C)[C@@H](OC(C)=O)[C@H](OC(C)=O)C3=C(C)C(=O)C[C@@](O)([C@@H](OC(C)=O)[C@H]12)C3(C)C (stereo partly specified)	> 10 µg/mL	2.7 µg/mL (≈ 4.04 µM)	175%	466%
C=C1[C@@H](OC(=O)/C=C/c2ccccc2)C[C@H](OC(C)=O)[C@]2(C)[C@@H]1C[C@]1(C(C)(C)O)C[C@H](OC(C)=O)C(C)=C1[C@@H](O)[C@@H]2OC(C)=O	5.8 µg/mL (≈ 9.28 µM)	1.2 µg/mL (≈ 1.92 µM)	176%	584%
C=C1[C@@H](OC(=O)/C=C/c2ccccc2)CC[C@]2(C)[C@@H]1C[C@@H]1C[C@H](OC(C)=O)C(C)=C([C@@H](OC(C)=O)[C@@H]2OC(C)=O)C1(C)C	8.2 µg/mL (≈ 13.8 µM)	9.5 µg/mL (≈ 16 µM)	102%	517%
C=C1[C@@H](OC(=O)/C=C/c2ccccc2)C[C@H](OC(C)=O)[C@]2(C)[C@@H]1C[C@]1(C(C)(C)O)C[C@H](OC(C)=O)C(C)=C1[C@@H](OC(=O)c1ccccc1)[C@@H]2OC(C)=O [TAXUSPINE A]	> 10 µg/mL	4.2 µg/mL (≈ 5.76 µM)	142%	246%
CC(=O)O[C@H]1C[C@H]2OC[C@@]2(OC(C)=O)[C@H]2[C@H](OC(C)=O)[C@]3(C(C)(C)O)C[C@H](OC(=O)/C=C/c4ccccc4)C(C)=C3[C@@H](OC(=O)c3ccccc3)[C@H](OC(C)=O)[C@]12C [TAXCHININ B]	> 10 µg/mL	3.8 µg/mL (≈ 4.73 µM)	219%	639%
C=C1[C@@H](O)C[C@H](OC(C)=O)[C@@]2(C)[C@@H](OC(C)=O)[C@H](OC(C)=O)C3=C(C)[C@@H](OC(C)=O)C[C@@H]([C@@H](O)[C@H]12)C3(C)C	7.4 µg/mL (≈ 13.8 µM)	10 µg/mL (≈ 18.6 µM)	205%	439%
C=C1[C@@H](OC(=O)/C=C/c2ccccc2)C[C@H](OC(C)=O)[C@@]2(C)[C@@H](OC(C)=O)[C@H](OC(C)=O)C3=C(C)C(=O)C[C@@H]([C@@H](OC(C)=O)[C@H]12)C3(C)C	> 10 µg/mL	> 10 µg/mL	116%	438%
CC(=O)O[C@H]1C(=O)[C@@]2(C)[C@H]([C@H](OC(=O)c3ccccc3)[C@]3(O)C[C@H](OC(=O)[C@H](O)C(NC(=O)C4CCC4)c4ccccc4)C(C)=C1C3(C)C)[C@]1(OC(C)=O)CO[C@@H]1C[C@@H]2O (stereo partly specified)	0.086 µg/mL (≈ 0.103 µM)	0.25 µg/mL (≈ 0.301 µM)	88%	93%
CC(=O)O[C@@]12CO[C@H]1C[C@H](O)[C@@]1(C)C(=O)[C@H](O)C3=C(C)[C@@H](O)C[C@@](O)([C@@H](OC(=O)c4ccccc4)[C@H]21)C3(C)C	> 10 µg/mL	> 10 µg/mL	153%	271%
C=C1[C@@H](O)C[C@H](OC(C)=O)[C@@]2(COC(C)=O)[C@@H](OC(C)=O)[C@H](OC(C)=O)[C@]3(O)[C@@]4(C)CO[C@]3(C)C(=O)C[C@H]4[C@@H](OC(C)=O)[C@H]12	> 10 µg/mL	> 10 µg/mL	142%	198%
C=C1[C@@H](OC(=O)/C=C/c2ccccc2)C[C@H](OC(C)=O)[C@@]2(COC(=O)c3ccccc3)[C@@H](OC(C)=O)[C@H](OC(C)=O)[C@]3(O)[C@@]4(C)CO[C@]3(C)C(=O)C[C@H]4[C@@H](OC(C)=O)[C@H]12	> 10 µg/mL	> 10 µg/mL	169%	537%
C=C1[C@@H](OC(=O)CC(c2ccccc2)N(C)C)CC[C@@]2(C)[C@@H](OC(C)=O)[C@H](OC(C)=O)C3=C(C)C(=O)C[C@@H]([C@@H](OC(C)=O)[C@H]12)C3(C)C (stereo partly specified)	> 10 µg/mL	> 10 µg/mL	177%	704%
C=C1[C@@H](OC(=O)/C=C/c2ccccc2)C[C@H](OC(C)=O)[C@@]2(COC(C)=O)[C@@H](OC(C)=O)[C@H](O)[C@]3(O)[C@@]4(C)CO[C@]3(C)C(=O)C[C@H]4[C@@H](OC(C)=O)[C@H]12 [TAXUSPINE T]	0.06 µg/mL (≈ 0.0842 µM)	1 µg/mL (≈ 1.4 µM)	196%	308%
C=C1[C@@H](OC(=O)/C=C/c2ccccc2)CC[C@@]2(C)[C@@H](OC(C)=O)[C@H](OC(C)=O)C3=C(C)C(=O)C[C@@](O)([C@@H](OC(C)=O)[C@H]12)C3(C)C	6.9 µg/mL (≈ 11.1 µM)	4.6 µg/mL (≈ 7.39 µM)	167%	436%
C=C1[C@@H](OC(=O)/C=C/c2ccccc2)C[C@H](OC(C)=O)[C@@]2(C)[C@@H](OC(C)=O)[C@H](OC(C)=O)[C@]3(O)[C@@]4(C)CO[C@]3(C)C(=O)C[C@H]4[C@@H](OC(C)=O)[C@H]12 [TAXAGIFINE]	0.86 µg/mL (≈ 1.23 µM)	1.3 µg/mL (≈ 1.87 µM)	194%	242%
C=C1[C@@H](OC(=O)/C=C/c2ccccc2)C[C@H](OC(C)=O)[C@@]2(CO)[C@@H](OC(C)=O)[C@H](OC(C)=O)[C@]3(O)[C@@]4(C)CO[C@]3(C)C(=O)C[C@H]4[C@@H](OC(C)=O)[C@H]12 [TAXUSPINE S]	0.26 µg/mL (≈ 0.365 µM)	3.8 µg/mL (≈ 5.33 µM)	136%	190%
CC(=O)O[C@H]1[C@@H]2[C@H](CO)[C@@H](OC(C)=O)C[C@H](OC(C)=O)[C@@]2(C)[C@@H](OC(C)=O)[C@H](OC(C)=O)C2=C(C)[C@@H](OC(C)=O)C[C@@H]1C2(C)C	4.5 µg/mL (≈ 7.05 µM)	10 µg/mL (≈ 15.7 µM)	177%	264%
CC(=O)O[C@@H]1C2=C(C)[C@@H](O)C[C@@]2(C(C)(C)O)[C@@H](OC(C)=O)[C@@H]2[C@]3(OC(C)=O)CO[C@@H]3C[C@H](OC(C)=O)[C@@]2(C)[C@H]1OC(C)=O	> 10 µg/mL	> 10 µg/mL	147%	235%
